Measured values reported in ChEMBL document CHEMBL1201862, “PubChem BioAssay data set” (2004).
Active and inactive are the calls of the source.

Columns and labels:
[1] = molecular target: Induced myeloid leukemia cell differentiation protein Mcl-1 (Homo sapiens, UniProt Q07820); type: functional
[2] = molecular target: Eukaryotic translation initiation factor 4E (Mus musculus, UniProt P63073); test: blockers of eIF4G binding by eIF4E – biochemical, TR-FRET, dose response (AID 855); type: functional;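 further: potency for disrupting eIF4E binding to eIF4GI seen as loss of FRET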
[3] = molecular target: T1, Heat shock factor protein 1 (Mus musculus, UniProt P38532); test: enhancement of HSF1-driven luciferase signal – cell-based, NIH3T3, luminescence, dose retest, confirmation (AID 435004); type: functional;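 further: stress induced by proteasome inhibitor MG132 added 30 min after compound; luciferase reporter driven by HSF1 response element in NIH3T3 cells; actives raise luminescence as potentiators of the MG132 stress response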
T1 sequence (P38532 whole entry): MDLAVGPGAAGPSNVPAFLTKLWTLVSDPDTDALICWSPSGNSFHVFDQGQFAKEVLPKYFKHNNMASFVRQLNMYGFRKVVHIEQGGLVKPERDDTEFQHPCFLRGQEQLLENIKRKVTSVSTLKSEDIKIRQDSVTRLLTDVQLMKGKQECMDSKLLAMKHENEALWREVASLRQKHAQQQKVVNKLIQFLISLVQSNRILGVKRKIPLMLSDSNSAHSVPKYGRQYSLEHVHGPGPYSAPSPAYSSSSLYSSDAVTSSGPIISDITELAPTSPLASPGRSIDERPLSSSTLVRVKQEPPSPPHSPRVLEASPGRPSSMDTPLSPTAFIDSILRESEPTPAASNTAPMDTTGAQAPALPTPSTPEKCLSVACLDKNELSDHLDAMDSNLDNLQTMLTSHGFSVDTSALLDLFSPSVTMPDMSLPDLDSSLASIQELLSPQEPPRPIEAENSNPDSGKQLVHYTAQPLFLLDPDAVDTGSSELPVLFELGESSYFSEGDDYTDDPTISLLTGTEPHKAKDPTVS

[4] = HEK-293T cell viability reduction – luminescence, B-cell screen hits, cytotoxicity control for BCR NF-kB inhibitor project, dose response (AID 489021); type: functional, cell-based;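 further: HEK-293T cells carrying an NF-kB luciferase reporter; cells exposed to compound for about 14 hours before viability readout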
SUMO-activating enzyme [5] = molecular target: T2, SUMO-activating enzyme (Homo sapiens, UniProt Q9UBT2); test: blockers of UBC9-mediated SUMO conjugation – biochemical, AlphaScreen, SUMOylation inhibitor project, confirmation (AID 2018); type: functional
[6] = Luminescence Cell-Based Dose Retest to Confirm Inhibitors of Cancer Stem Cells. [Related pubchem assays (depositor defined):AID2717, AID2721]; type: functional; details: Homo sapiens
SUMO-activating enzyme [7] = molecular target: T2, SUMO-activating enzyme; test: blockers of SAE1/SAE2–UBC9 SUMO transfer – biochemical, HTRF, uHTS, primary screen (AID 2006); type: protein-complex assay
[8] = HEK-293T viability loss after treatment – luminescence, T-cell screen hits, cytotoxicity control for TCR NF-kB inhibitor project, dose response (AID 489026); type: functional, cell-based;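 further: cells exposed to compound about 14 hours before the viability readout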
[9] = molecular target: T3, RNA-binding protein pos-1 (Caenorhabditis elegans, UniProt G5EF15); test: disruptors of C. elegans POS-1 RNA interaction – biochemical, fluorescence polarization, dose response (AID 1964);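 further: purified POS-1 fused to maltose binding protein made in E. coli; potency of compounds blocking POS-1 binding to fluorescent RNA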
T3 sequence (G5EF15 whole entry): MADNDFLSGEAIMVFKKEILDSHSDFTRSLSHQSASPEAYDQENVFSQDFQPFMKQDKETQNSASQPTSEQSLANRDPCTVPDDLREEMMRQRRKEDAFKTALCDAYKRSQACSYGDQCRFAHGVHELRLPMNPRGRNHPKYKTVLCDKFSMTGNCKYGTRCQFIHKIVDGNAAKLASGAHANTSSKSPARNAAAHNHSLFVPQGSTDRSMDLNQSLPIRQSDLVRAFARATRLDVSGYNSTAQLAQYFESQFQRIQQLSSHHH

[10] = molecular target: T4, Zinc finger protein mex-5 (Caenorhabditis elegans, UniProt Q9XUB2); test: potency of MEX-5 RNA-binding blockers – biochemical, C. elegans, fluorescence polarization, dose response (AID 1960)
T4 sequence (Q9XUB2 whole entry): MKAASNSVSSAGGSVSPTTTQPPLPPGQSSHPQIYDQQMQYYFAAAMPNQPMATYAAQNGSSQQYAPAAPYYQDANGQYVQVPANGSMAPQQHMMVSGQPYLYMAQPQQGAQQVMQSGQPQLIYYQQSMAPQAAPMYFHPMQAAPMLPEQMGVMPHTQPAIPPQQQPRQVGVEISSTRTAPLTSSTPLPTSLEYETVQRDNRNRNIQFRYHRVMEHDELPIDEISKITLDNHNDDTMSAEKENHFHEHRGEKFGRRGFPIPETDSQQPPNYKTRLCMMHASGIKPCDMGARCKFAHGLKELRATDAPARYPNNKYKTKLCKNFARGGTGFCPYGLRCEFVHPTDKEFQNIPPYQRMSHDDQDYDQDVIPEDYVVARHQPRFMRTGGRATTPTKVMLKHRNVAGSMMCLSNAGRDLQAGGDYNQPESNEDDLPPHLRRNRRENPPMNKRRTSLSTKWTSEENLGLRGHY

Genome polyprotein = Genome polyprotein (dengue virus type 2, UniProt P29990); test: flavivirus cap methylation enzyme inhibition – biochemical, confirmation dose response, primary screen (AID 588689); type: functional
[11] = molecular target: T5, Calpain-2 catalytic subunit (Sus scrofa, UniProt P43367); test: m-calpain protease blockers, concentration series – biochemical, fluorogenic peptide substrate, dose response (AID 1420); type: functional
T5 sequence (P43367 whole entry): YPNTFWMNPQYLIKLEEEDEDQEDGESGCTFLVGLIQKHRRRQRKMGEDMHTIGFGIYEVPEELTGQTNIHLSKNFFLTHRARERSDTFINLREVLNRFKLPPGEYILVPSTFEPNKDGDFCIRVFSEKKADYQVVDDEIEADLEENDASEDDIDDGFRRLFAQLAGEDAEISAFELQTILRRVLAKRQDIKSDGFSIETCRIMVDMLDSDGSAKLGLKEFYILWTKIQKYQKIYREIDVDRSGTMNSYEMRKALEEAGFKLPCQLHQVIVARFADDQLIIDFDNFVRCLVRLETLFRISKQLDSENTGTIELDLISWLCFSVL

[12] = alpha-synuclein stem-loop luciferase translation blockers – H4 neuroglioma cells, luminescence, confirmation (AID 1988); type: functional, cell-based
[13] = Luminescence Cell-Based Dose Response HTS to Identify Inhibitors of 5'UTR Stem-Loop Driven Prion Protein mRNA Translation in H4 Neuroglioblastoma Cells. [Related pubchem assays: 1827 (Project Summary), 1813 (Primary HTS)]; type: functional
[14] = luciferase reporter signal suppression in cells – H4 neuroglioma cells, luminescence, dose response (AID 1990); type: functional, cell-based
[15] = loss of viability in HepG2 cells – cell-based, CellTiter-Glo, cherry-picked, cytotoxicity control for Shn3 inhibitor project, dose response (AID 624134); type: functional
[16] = reduction of Shn3 3'UTR-driven luciferase in osteoblasts – cell-based, Clone20 osteoblasts, firefly luciferase, cherry-picked, dose response (AID 624132); type: functional;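 further: firefly luciferase luminescence from reporter carrying the Shn3 3'UTR in osteoblasts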
Protein Wnt-3a = Protein Wnt-3a (Mus musculus, UniProt P27467); test: antagonism of Wnt3a pathway luciferase reporter – Wnt-LIGHT cells, luminescence, selectivity assay for Gli-SUFU antagonist project, dose response (AID 651570); type: functional; details: read-out: IC50_Mean;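 further: Wnt-LIGHT reporter cells stimulated with conditioned medium from Wnt3a-producing cells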
[17] = non-specific 3'UTR reporter inhibition in Clone20-Shn3RL – cell-based, Renilla luciferase, cherry-picked, counter-screen for Shn3 inhibitor project, dose response (AID 624133); type: functional
Leucine aminopeptidase = molecular target: T6, Leucine aminopeptidase (Plasmodium falciparum 3D7, UniProt Q8IL11); test: P. falciparum M17LAP inhibitors, primary screen, biochemical, fluorogenic H-Leu-NHMec substrate, 1536-well (AID 1619); type: functional
T6 sequence (Q8IL11 whole entry): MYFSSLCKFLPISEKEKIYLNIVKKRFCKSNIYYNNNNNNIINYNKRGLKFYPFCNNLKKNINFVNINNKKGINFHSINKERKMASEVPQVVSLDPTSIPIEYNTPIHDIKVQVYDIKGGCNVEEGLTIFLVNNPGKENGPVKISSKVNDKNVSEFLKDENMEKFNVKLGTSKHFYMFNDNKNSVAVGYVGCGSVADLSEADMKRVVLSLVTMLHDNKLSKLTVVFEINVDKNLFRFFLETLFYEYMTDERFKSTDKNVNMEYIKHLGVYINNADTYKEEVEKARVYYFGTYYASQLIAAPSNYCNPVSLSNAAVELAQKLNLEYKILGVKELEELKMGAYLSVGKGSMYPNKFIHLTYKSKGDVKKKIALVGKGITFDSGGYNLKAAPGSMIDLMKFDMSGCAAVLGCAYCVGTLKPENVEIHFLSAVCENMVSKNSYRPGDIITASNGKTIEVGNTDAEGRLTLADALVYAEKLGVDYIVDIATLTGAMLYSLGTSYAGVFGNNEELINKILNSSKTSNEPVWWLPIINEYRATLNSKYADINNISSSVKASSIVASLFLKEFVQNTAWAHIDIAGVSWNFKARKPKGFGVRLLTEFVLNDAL

[18] = molecular target: T7, Rac GTPase-activating protein 1 (Homo sapiens, UniProt Q9H0H5); test: blockers of MgcRacGAP-driven Rac1 GTP hydrolysis – biochemical, ADP Hunter fluorescence, primary and confirmatory, confirmation (AID 624330); type: functional
T7 sequence (Q9H0H5 whole entry): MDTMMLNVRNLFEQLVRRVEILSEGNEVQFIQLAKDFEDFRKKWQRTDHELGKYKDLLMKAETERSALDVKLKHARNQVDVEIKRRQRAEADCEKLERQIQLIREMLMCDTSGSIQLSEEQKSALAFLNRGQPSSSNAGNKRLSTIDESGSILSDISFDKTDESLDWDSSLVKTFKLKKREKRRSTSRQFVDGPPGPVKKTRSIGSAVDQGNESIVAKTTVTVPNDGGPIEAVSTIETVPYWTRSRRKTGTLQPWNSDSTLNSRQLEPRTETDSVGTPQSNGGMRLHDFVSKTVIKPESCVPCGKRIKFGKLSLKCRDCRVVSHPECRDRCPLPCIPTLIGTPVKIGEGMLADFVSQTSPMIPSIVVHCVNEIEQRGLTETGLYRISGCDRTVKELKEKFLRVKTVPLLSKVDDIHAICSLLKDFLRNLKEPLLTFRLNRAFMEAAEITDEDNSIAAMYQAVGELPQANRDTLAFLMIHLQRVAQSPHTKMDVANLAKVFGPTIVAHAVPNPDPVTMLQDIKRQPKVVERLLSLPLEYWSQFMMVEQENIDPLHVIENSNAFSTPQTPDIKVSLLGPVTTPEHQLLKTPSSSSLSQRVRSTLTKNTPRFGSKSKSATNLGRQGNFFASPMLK

[19] = molecular target: T8, Microphthalmia-associated transcription factor (Homo sapiens, UniProt O75030); test: reducers of TRPM1 reporter luminescence, concentration series – cell-based, SK-MEL-5, cherry-picked, set 3, MITF inhibitor project, dose response (AID 493073); type: functional;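 further: SK-MEL-5 melanoma cells with luciferase driven by the MITF target TRPM1 promoter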
T8 sequence (O75030 whole entry): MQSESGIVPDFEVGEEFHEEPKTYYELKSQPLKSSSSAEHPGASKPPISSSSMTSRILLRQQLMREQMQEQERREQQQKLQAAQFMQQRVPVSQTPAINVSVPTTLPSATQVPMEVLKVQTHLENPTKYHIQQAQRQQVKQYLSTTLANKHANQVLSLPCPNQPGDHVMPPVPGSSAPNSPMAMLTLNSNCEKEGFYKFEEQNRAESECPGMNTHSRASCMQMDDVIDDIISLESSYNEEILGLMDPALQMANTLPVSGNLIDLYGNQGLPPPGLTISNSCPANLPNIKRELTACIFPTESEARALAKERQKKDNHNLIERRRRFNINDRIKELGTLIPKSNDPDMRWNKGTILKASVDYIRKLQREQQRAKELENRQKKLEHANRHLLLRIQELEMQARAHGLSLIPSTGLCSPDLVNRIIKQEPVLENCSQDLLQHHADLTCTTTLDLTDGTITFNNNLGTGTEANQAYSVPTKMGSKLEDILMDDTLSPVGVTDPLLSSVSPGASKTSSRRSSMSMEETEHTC

[20] = NIH-3T3 fibroblast cytotoxicity, dose response, cytotoxicity control, cell-based, fluorescence, Alamar Blue, secondary assay (AID 2327); type: functional;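 further: NIH-3T3 mouse fibroblasts cultured with fluconazole at 8 µg/mL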
[21] = fluconazole-exposed Candida albicans growth modulators – fluorescence, retest, confirmation (AID 2467); type: functional, cell-based

Eukaryotic translation initiation factor 4E, sequence (P63073 whole entry): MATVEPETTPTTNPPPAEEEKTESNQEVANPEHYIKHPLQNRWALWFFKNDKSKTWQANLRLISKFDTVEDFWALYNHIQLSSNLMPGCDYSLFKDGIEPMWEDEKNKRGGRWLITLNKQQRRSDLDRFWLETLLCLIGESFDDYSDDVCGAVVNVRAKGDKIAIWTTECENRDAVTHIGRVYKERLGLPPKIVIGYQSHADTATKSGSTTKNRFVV
T2 sequence (Q9UBE0 whole entry): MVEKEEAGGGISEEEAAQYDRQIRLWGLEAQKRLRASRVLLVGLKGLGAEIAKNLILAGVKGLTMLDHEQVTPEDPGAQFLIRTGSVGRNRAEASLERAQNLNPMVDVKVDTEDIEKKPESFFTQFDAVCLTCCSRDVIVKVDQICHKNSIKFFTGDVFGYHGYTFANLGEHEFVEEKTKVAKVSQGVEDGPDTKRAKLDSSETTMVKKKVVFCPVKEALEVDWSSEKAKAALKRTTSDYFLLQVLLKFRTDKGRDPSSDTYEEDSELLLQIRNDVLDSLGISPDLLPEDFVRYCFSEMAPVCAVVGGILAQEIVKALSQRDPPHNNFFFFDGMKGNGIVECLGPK
T2 sequence (Q9UBT2 whole entry): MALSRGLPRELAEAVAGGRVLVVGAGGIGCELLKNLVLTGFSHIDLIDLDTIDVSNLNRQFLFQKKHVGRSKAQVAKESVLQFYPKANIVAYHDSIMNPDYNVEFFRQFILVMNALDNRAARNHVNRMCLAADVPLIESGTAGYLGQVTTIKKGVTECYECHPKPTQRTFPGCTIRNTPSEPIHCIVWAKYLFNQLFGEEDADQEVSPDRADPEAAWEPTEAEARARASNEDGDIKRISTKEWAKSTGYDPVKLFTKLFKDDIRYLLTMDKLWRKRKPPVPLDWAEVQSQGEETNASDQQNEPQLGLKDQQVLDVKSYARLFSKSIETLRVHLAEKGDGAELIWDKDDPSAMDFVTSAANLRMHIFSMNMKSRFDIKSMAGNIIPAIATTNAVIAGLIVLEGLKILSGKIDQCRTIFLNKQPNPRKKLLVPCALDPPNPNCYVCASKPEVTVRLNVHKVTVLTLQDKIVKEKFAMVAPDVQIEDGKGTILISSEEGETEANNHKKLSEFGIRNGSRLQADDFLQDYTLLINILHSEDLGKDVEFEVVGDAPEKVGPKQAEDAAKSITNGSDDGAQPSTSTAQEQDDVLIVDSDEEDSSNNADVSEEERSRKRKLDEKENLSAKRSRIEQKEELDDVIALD
Induced myeloid leukemia cell differentiation protein Mcl-1, sequence (Q07820 whole entry): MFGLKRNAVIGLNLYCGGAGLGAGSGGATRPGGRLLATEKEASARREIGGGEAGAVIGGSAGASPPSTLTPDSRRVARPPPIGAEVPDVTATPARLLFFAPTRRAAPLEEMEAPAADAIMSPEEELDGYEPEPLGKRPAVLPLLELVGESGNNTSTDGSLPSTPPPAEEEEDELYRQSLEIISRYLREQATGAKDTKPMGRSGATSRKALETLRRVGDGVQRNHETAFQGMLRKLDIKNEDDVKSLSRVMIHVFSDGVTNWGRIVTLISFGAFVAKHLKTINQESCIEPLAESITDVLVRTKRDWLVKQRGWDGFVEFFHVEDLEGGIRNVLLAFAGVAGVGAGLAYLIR
Protein Wnt-3a, sequence (P27467 whole entry): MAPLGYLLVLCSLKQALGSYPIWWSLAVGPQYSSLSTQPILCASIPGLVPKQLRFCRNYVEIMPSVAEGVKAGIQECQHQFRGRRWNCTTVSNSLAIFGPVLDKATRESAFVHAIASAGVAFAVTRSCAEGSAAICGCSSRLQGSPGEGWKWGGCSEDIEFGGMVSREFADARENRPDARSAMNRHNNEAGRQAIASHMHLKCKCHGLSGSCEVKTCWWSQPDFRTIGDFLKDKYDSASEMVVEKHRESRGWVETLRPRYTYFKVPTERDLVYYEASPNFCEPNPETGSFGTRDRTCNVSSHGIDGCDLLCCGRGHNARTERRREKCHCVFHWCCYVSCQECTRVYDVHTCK
Genome polyprotein, sequence (P29990 2492-3391 limits assumed): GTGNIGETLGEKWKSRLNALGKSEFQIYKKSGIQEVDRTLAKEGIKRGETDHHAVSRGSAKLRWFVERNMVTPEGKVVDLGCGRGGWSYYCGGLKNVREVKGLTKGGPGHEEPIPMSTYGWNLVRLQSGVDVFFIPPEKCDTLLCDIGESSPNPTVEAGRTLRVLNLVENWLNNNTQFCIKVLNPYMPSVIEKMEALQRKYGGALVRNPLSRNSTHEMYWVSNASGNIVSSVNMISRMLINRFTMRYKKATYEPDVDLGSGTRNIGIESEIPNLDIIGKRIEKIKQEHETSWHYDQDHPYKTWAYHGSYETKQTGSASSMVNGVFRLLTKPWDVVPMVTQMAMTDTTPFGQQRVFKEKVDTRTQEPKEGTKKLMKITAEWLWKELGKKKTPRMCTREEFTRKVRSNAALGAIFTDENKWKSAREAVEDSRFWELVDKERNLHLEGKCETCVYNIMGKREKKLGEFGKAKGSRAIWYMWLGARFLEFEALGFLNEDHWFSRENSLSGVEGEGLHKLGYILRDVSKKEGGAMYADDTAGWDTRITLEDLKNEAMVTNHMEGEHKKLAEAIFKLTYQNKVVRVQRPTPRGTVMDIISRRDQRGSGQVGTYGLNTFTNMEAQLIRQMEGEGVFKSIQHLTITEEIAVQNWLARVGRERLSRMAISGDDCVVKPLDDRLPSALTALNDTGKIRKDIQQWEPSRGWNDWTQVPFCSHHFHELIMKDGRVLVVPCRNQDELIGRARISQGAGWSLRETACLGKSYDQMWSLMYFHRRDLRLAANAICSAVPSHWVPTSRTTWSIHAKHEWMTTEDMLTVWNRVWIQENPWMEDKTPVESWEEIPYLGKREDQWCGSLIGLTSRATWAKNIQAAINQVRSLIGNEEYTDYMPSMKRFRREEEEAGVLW

Compound: O=C1OC(c2cccs2)=N/C1=C/c1ccc(-c2cccc(C(=O)O)c2)o1
- IC50 [1]: 1.53 µM (not active)
- IC50 [2]: 32.7 µM (inactive)

Compound: Cc1ccc(O)c(NC(=O)COc2cc(C)ccc2C)c1
- EC50 [3]: > 260 µM (inactive)
- IC50 [4]: > 80 µM (inactive)

Compound: CCOC(=O)c1c(CSc2ccccc2)n(C)c2cc(Br)c(OCC(O)CNC(CO)(CO)CO)cc12 (configuration not stated)
- IC50 (SUMO-activating enzyme [5]): 2.75 µM (active)
- AC50 [6]: 1.46 µM (active)
- IC50 (SUMO-activating enzyme [7]): 17.9 µM (active)

Compound: CCc1ccc(/C=N/NC(=O)c2cc(-c3ccncc3)nc3ccccc23)s1
- IC50 [8]: > 80 µM (inactive)

Compound: CC1=C(C#N)C(=O)NC(=O)/C1=C\c1ccc(-c2cc(C)c(C)cc2[N+](=O)[O-])o1
- EC50 [9]: > 300 µM (not active)
- IC50 (SUMO-activating enzyme [5]): 5.31 µM (active)
- EC50 [10]: > 300 µM (not active)
- IC50 (Genome polyprotein): 64.9 µM (active)
- IC50 [1]: 2.87 µM (active)
- IC50 [2]: 40.4 µM (inactive)
- IC50 (SUMO-activating enzyme [7]): 39.7 µM (active)

Compound: O=C(COc1ccc(C(=O)c2ccccc2)cc1)NCc1ccc(F)cc1
- IC50 [11]: > 50 µM (not active)
- EC50 [12]: 7.25 µM (active)
- EC50 [13]: 10 µM (active)
- IC50 [8]: > 80 µM (inactive)
- EC50 [14]: > 120 µM (not active)

Compound: CC1CN(S(=O)(=O)c2ccc(C(=O)Nc3nc(-c4cc5ccccc5o4)cs3)cc2)CC(C)O1 (configuration not stated)
- AC50 [15]: 1.02 µM (active)
- AC50 [16]: < 0.26 µM (active)
- IC50 (Protein Wnt-3a): 1.28 µM (active)
- IC50 [4]: > 80 µM (inactive)
- AC50 [17]: 2.04 µM (active)

Compound: Cc1cccc(Nc2nnc(S)s2)c1C
- IC50 (Leucine aminopeptidase): 9.62 µM (active)
- IC50 [2]: > 64 µM (inactive)
- IC50 [18]: 67.2 µM (active)

Compound: Cc1ccc(CNC(=O)c2ccc(N3CCc4ccccc43)c([N+](=O)[O-])c2)cc1
- IC50 [2]: > 64 µM (inactive)

Compound: Cc1ccc(-c2cc(-c3ccc(C)cc3)[n+](C)o2)cc1.[O-][Cl+3]([O-])([O-])[O-]
- AC50 [19]: 8.24 µM (active)
- EC50 [20]: > 160 µM (inactive)
- EC50 [21]: > 38 µM (not active)
